Reference: US9433663B2, “Mobilization of hematopoietic stem cells” (Children's Hospital Medical Center, priority 2008, dated 2016)

Columns and labels:
RhoA = target: T1, RhoA (Mus musculus, UniProt Q9QUI0); assay: Rho GTPase effector pull-down in murine LDBM cells, RhoA; type: cell-based; conditions: parallel pull-down assay
T1 construct: endogenous in cells; host or cells: murine LDBM cells
Method: To analyze the effects of CASIN on the formation of active GTP-bound Cdc42, RhoA, and Rac1, effector pulldown assays were carried out as described previously. Cdc42GAP^−/− MEF, LDBM, CD34^+ hCB cells were treated with CASIN at doses of 5-20 μM in parallel with vehicle control for 2 hrs after overnight starvation, and stimulated with cytokines subsequently. And then cells were lysed in a buffer containing 20 mM Tris-HCL (pH 7.6), 100 mM NaCl, 1% Triton X-100, 10 mM MgCl2, 2 mM NaF, and Protease inhibitor cocktail (Roche Diagnostics). Lysates were incubated with GST-P21-binding domain of PAK1 for RAC1-GTP and Cdc42-GTP, and GST-RBD domain of Rhotekin for RhoA-GTP respectively. Both bound- and unbound-form of Rho GTPases were probed by immunoblotting with antibodies specific for Rac1 (BD biosciences), Cdc42 (BD biosciences), and RhoA (cell signaling).

32D myeloid progenitors = assay: transwell migration of 32D progenitors towards SDF1α; type: cell-based, murine; conditions: dose-dependent manner
Source text: (§1) To shed light on potential roles of CASIN in HSPC mobilization, the effects of CASIN on Cdc42-related cellular functions was studied, including adhesion, migration, and F-actin polymerization of progenitor cells in 32D myeloid progenitors. […] SDF-1α stimulation causes a reorganization of F-actin into a cortical ring around the cells. […] Thirdly, to gain further insight into cellular specificity and efficacy of CASIN, and also to rule out possible toxic effects by CASIN, Cdc42-involved BM progenitor cell functions were examined, including proliferation, adhesion, migration, and F-actin polymerization, in Cdc42^+/+ cells in parallel with Cdc42^−/− cells. In line with additional studies in a Cdc42 conditional knockout mouse model as described herein, Cdc42^−/− LDBM cells have increased CFU-forming progenitors compared to those of Cdc42^+/+.

LDBM cells = assay: CFU-migration assay of LDBM progenitors towards SDF-1α; type: cell-based, murine
Source text: as §1
Murine LDBM cells from Cdc42^+/+ as well as Cdc42^−/− mice were used for CFU-adhesion/migration experiments as described previously. Briefly, for adhesion experiment, in the presence or absence of prior CASIN treatment at doses of 5 and 10 μM, 10^5 cells were plated onto each well of 48-well plates pre-coated with fibronectin fragment CH296, which contains integrin α4β1-binding site. Adherent cells then were harvested by cells dissociation buffer (Gibco, Carlsbad, Calif.), and further plated in CFU assay. […]

[1] = tested on: leukemia initiating cells (LICs); type: in vivo
Source text: Like normal HSCs, their malignant counterpart, leukemia initiating cells (LICs) reside in their BM niches that provide the structural and physiological conditions supporting their survival and growth. LICs are resistant to traditional chemotherapy by interacting with their BM microenvironment, which are the culprits of leukemia relapses after a period of remission induced by chemotherapy. Detachment of LICs from their niche by CASIN would be a valuable supplementary therapy to the traditional cancer therapies (e.g., chemotherapies). First of all, in vitro effects of CASIN were examined in adhesion, migration, and F-actin polymerization of LICs, each of which is independently important for the retention of LICs in BM niches. Retroviral transduction of an MLL-AF9 fusion cDNA together with N-Ras oncogene into normal human CD34^+cord blood cells led to the establishment of cultures of N-Ras-MA93 cells that can initiate acute myeloid leukemia in NOG mice. […] To address it, a human AML model was set up by transplanting N-RasMA93 cells into NOG mice intravenously.
C57BL/6, NOD/SCID, NOD/SCID-SGM3 and NOD/SCIDγC−/− (NOG) were in house bred in the animal barrier facility of Cincinnati Children's Hospital Medical Center (CCHMC) and used at the age of 6-8 weeks old. Cultured N-RasMA93 cells were injected into NOD/SCIDγC−/− mice by tail vein. […]

Cdc42 = Cdc42 (Mus musculus, UniProt P60766); assay: Example 7 effector pull-down in LDBM and HCB cells, Cdc42; type: cell-based, murine LDBM and human HCB cells; parameters: endogenous in cells; host or cells: murine LDBM cells and human CD34+ HCB cells
Method: To exclude the inhibitory effect of CASIN on other Rac isoforms, Rho GTPases, and Ras, broader effector pull-down experiments are performed on these possible candidates with gradient doses of CASIN in LDBM and HCB cells as previously described. In addition, CASIN has been indicated as a noncovalent and reversible inhibitor in Xenopus egg extract. To confirm it, reversibility is monitored in this set of effector pull-down experiments. Four treatment groups are divided for both LDBM and HCB cells: (1) Serum starvation 20 h; (2) Serum starvation 20 h+growth factors stimulation; (3) Serum starvation 20 h+CASIN treatment (doses: 1, 2.5, 5, and 10 μM) 3 h+growth factor stimulation; (4) Serum starvation 20 h+CASIN treatment (doses: 1, 2.5, 5, and 10 μM) 3 h+wash the cells, and culture for another 3 h for recovery+growth factors stimulation. […] Bound proteins are analyzed by immunoblotting with respective antibodies (BD Biosciences). Furthermore, changes of downstream targets of Cdc42, Rac, and Rho under the four treatment groups are assessed. Phosphorylation status of PAK1, WASP (effectors of Cdc42), WAVE (effector of Rac), and ROCK (effector of Rho) are monitored by western blots using respective antibodies.

Chain of Cdc42 (P60766 1-188 limits assumed): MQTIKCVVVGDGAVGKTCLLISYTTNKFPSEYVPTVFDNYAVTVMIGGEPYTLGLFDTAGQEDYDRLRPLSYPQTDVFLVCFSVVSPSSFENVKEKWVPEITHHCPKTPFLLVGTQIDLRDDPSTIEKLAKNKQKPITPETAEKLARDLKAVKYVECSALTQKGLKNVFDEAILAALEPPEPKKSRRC
T1 sequence (Q9QUI0 whole entry): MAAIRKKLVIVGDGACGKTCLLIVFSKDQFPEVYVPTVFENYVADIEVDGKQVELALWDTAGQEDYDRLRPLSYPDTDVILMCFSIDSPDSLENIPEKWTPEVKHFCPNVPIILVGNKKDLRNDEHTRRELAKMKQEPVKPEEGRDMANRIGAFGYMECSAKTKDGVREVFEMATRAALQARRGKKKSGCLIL

## OCCNC1CCCc2c1[nH]c1ccc(-c3ccccc3)cc21 (stereo not shown) [CASIN]
RhoA
  RhoA activity: no effects
32D myeloid progenitors
  migration of 32D progenitor cells towards SDF1α gradient: significantly reduced migration
LDBM cells
  directional migration capacity of Cdc42^−/− cells: did not affect
[1]; in vivo
  apoptosis or cell death of leukemia cells in vivo: did not elicit significant apoptosis or cell death
[1]; intravenous, by 20 min post injection
  mobilization of LICs to the peripheral blood: efficiently mobilized the LICs to the peripheral blood transiently
Cdc42
  activity of Cdc42: specifically inhibit the activity of Cdc42 in a dose-dependent manner
  recovery of Cdc42 activity after wash: recovers 3 h after CASIN is washed away
